The NIST ThermoML archive (doi:10.1016/j.jct.2016.02.009)
± gives the expanded uncertainty stated by the source.

Test: Molar enthalpy of transition or fusion
Details: Crystal 1; Adiabatic calorimetry

Row | SMILES | Molar enthalpy of transition or fusion
1 | CCCCCCCCCCCCCCn1cc[n+](C)c1.O=S(=O)([N-]S(=O)(=O)C(F)(F)F)C(F)(F)F | 10.8 ± 0.0239 kcal/mol
2 | CCCCCCCCCCn1cc[n+](C)c1.O=S(=O)([N-]S(=O)(=O)C(F)(F)F)C(F)(F)F | 6.852 ± 0.0311 kcal/mol
3 | CCCCCCCCCCCCCCCCn1cc[n+](C)c1.O=S(=O)([N-]S(=O)(=O)C(F)(F)F)C(F)(F)F | 12.26 ± 0.0574 kcal/mol
